Here are results for 4 molecules from patent US20050182011A1, “Inhibition of TRP channels as a treatment for cardiac hypertrophy and heart failure” (priority 2003, published 2005).

The nature of data set [1]: Isoproterenol infusion model, heart weight to body weight ratio. The class given is in vivo. The following applies: rat, isoproterenol 4.8 mg/kg/d by osmotic minipump, 4 days. On the procedure:
Isoproterenol Infusion. For pharmacologic induction of hypertrophy in vivo, nine to ten-week-old male Sprague-Dawley rats were anesthetized via passive inhalation of 2.0% isoflurane. When a level of surgical anesthesia was reached, an osmotic minipump (Alzet model 2001, Alza Corp., Palo Alto, Calif.) containing either vehicle (0.1% ascorbic acid in 0.9% NaCl), or isoproterenol (4.8 mg/kg/d) was subcutaneously implanted into the back between the scapulae followed by closure with 3-0 silk sutures. After 4 days of recovery, animals were sacrificed and left ventricular tissue processed for Western blot analysis as described above. Average heart weight to body weight ratios in isoproterenol versus vehicle-infused rats increased 48% (data not shown).

Data set [2] deals with TRPC channel protein in left ventricle. In words: Isoproterenol infusion model, Western blot of TRPC isoforms in left ventricle. The class given is in vivo, rat. The protocol:
(§1) Western Blots. For protein sample preparation, cultured cells were lysed in extraction buffer (50 mM Tris, pH 7.5, 150 mM NaCl, 1% Triton X-100, 0.5% deoxycholic acid, 0.1% SDS) supplemented with protease inhibitors (1 mM AEBSF, 10 mg/ml aprotinin, 0.1 mM leupeptin, 2 mM EDTA). Left ventricle samples were ground under liquid nitrogen and solubilized in extraction buffer containing protease inhibitors. Homogenates were centrifuged 10 min at 4° C. at 16,000 g and supernatants recovered. Protein concentrations were determined by the bicinchoninic acid method (BCA Protein Assay, Pierce) with bovine serum albumin as a standard. Equivalent quantities of protein samples ([…]) were denatured in Laemmli buffer and resolved on Tris-glycine SDS-PAGE gels (4-20% acrylamide gradient, Invitrogen). Resolved proteins were transferred to nitrocellulose membranes, blocked in 5% nonfat dry milk, and probed with rabbit polyclonal primary antibody (diluted in TBST; 50 mM Tris, pH 7.5, 150 mM NaCl, 0.1% Tween-20) supplemented with 5% nonfat dry milk. Primary antibodies used include: anti-TRPC1 and TRPC3 (Alomone Labs) and anti-MCIP1 (Myogen, Inc). Membranes were washed, probed with a goat anti-rabbit horseradish peroxidase-conjugated secondary antibody (Southern Biotechnology Associates), and processed for enhanced chemiluminescence (SuperSignal reagent, Pierce). To verify equivalent protein loading, membranes were subsequently reprobed with a polyclonal rabbit antibody to the housekeeping gene IP90-calnexin. Densitometric analysis of immunoreactive band images was performed using a ChemiImager (Alpha Innotech). Isoproterenol Infusion. For pharmacologic induction of hypertrophy in vivo, nine to ten-week-old male Sprague-Dawley rats were anesthetized via passive inhalation of 2.0% isoflurane. When a level of surgical anesthesia was reached, an osmotic minipump (Alzet model 2001, Alza Corp., Palo Alto, Calif.) containing either vehicle (0.1% ascorbic acid in 0.9% NaCl), or isoproterenol (4.8 mg/kg/d) was subcutaneously implanted into the back between the scapulae followed by closure with 3-0 silk sutures. After 4 days of recovery, animals were sacrificed and left ventricular tissue processed for Western blot analysis as described above. Average heart weight to body weight ratios in isoproterenol versus vehicle-infused rats increased 48% (data not shown).

Data set [3] has as its system MCIP1 protein (indicator of calcineurin activity) in NRVM. The experiment in a line: Western blot of MCIP1 protein in NRVM. The class given is cell-based, rat. Particulars: for expression of 38 kDa calcineurin-independent MCIP1 isoform: NRVM. The protocol: as §1, with “Innotech).” for “Innotech). Isoproterenol Infusion. For pharmacologic induction of hypertrophy in vivo, nine to ten-week-old male Sprague-Dawley rats were anesthetized via passive inhalation of 2.0% isoflurane. When a level of surgical anesthesia was reached, an osmotic minipump (Alzet model 2001, Alza Corp., Palo Alto, Calif.) containing either vehicle (0.1% ascorbic acid in 0.9% NaCl), or isoproterenol (4.8 mg/kg/d) was subcutaneously implanted into the back between the scapulae followed by closure with 3-0 silk sutures. After 4 days of recovery, animals were sacrificed and left ventricular tissue processed for Western blot analysis as described above. Average heart weight to body weight ratios in isoproterenol versus vehicle-infused rats increased 48% (data not shown).”
On the technique in general: Immunoblotting shows a protein as a band on a membrane.

Another data set relates to TRPC3 protein in NRVM. In words: Western blot of TRPC3 protein in cultured NRVM exposed to hypertrophic stimuli. The class given is cell-based, rat. Particulars: 48 h, phenylephrine, FBS 10%, calcineurin adenovirus MOI 25. On the procedure:
Western Blots. For protein sample preparation, cultured cells were lysed in extraction buffer (50 mM Tris, pH 7.5, 150 mM NaCl, 1% Triton X-100, 0.5% deoxycholic acid, 0.1% SDS) supplemented with protease inhibitors (1 mM AEBSF, 10 mg/ml aprotinin, 0.1 mM leupeptin, 2 mM EDTA). Left ventricle samples were ground under liquid nitrogen and solubilized in extraction buffer containing protease inhibitors. Homogenates were centrifuged 10 min at 4° C. at 16,000 g and supernatants recovered. Protein concentrations were determined by the bicinchoninic acid method (BCA Protein Assay, Pierce) with bovine serum albumin as a standard. Equivalent quantities of protein samples ([…]) were denatured in Laemmli buffer and resolved on Tris-glycine SDS-PAGE gels (4-20% acrylamide gradient, Invitrogen). Resolved proteins were transferred to nitrocellulose membranes, blocked in 5% nonfat dry milk, and probed with rabbit polyclonal primary antibody (diluted in TBST; 50 mM Tris, pH 7.5, 150 mM NaCl, 0.1% Tween-20) supplemented with 5% nonfat dry milk. Primary antibodies used include: anti-TRPC1 and TRPC3 (Alomone Labs) and anti-MCIP1 (Myogen, Inc). Membranes were washed, probed with a goat anti-rabbit horseradish peroxidase-conjugated secondary antibody (Southern Biotechnology Associates), and processed for enhanced chemiluminescence (SuperSignal reagent, Pierce). […]

The test system of data set [4] is calcium-activated chloride channels. The following applies: Chorna-Ornan et al., 2001; cited from earlier work.
Data set [5] deals with arachidonic acid-activated calcium channels. Particulars: Luo et al., 2001; cited from earlier work.
Data set [6] concerns purinergic P2X receptor calcium channels. The following applies: cited from earlier work.
Another data set relates to ryanodine receptors. Particulars: Maruyama et al., 1997; cited from earlier work.
For data set [7], the system named is voltage-gated calcium channels. The following applies: Maruyama et al., 1997; cited from earlier work.
In data set [8] the test system is S-nitrosylation-activated calcium channels. Particulars: Van Rossum et al., 2000; cited from earlier work.
For data set [9], the system named is neonatal rat ventricular myocytes (NRVM). The protocol:
NRVM culture. […] Myocyte preparations were pre-plated in Dulbecco's modified Eagle's medium (DMEM, Cellgro), supplemented with 10% (v/v) fetal bovine serum (FBS, HyClone), 4 mM L-glutamine and 1% penicillin/streptomycin for 1 hr at 37° C. to reduce fibroblast contamination, then plated at a density of 2.5×10^5 cells per well on 6-well tissue culture plates (or 10,000 cells/well on 96-well tissue culture plates) coated with a 0.2% (w/v) gelatin solution.
For infection with calcineurin adenovirus, NRVM were exposed to adenovirus at a multiplicity of infection (MOI) of 25 for 48 h prior to analysis.
Hypertrophy and Toxicity Assays. Primary hypertrophy endpoints for NRVM included quantitation of ANF secretion, total cellular protein and cell volume. ANF in media supernatants was quantitated by competitive ELISA using a monoclonal anti-ANF antibody (Biodesign) and a biotinylated ANF peptide (Phoenix Peptide). Total cellular protein was quantitated by standard Coomassie dye-binding assay; cells were lysed in protein assay reagent (BioRad) and absorbance at A595 was measured after 1 hr. […] After recovery by centrifugation, cell pellets were washed in PBS, resuspended in 10 ml IsoFlow electrolyte solution (Beckman-Coulter) and analyzed with a Z2 Coulter Particle Counter and Size Analyzer (Beckman-Coulter). […]

“Also recorded” adds a separate entry of the source.

As for `CC(C)NCC(O)c1ccc(O)c(O)c1` (stereo not drawn) [isoproterenol], the “increase of average heart weight to body weight ratio versus vehicle-infused rats” value in data set [1] is 48%. Besides, the TRPC3 protein expression entry in [2] (Rat iso model) is given as “↑”. Also, the TRPC5 protein expression result in [2] (Rat iso model) was “increased expression”; in data set [2] (Rat iso model, listed as iso) it was “↑”. In addition, in data set [2] (rat, chronic isoproterenol infusion, densitometry), the “induction of ventricular TRPC3 protein expression” value is given as “approximately three-fold”.
On to `CNC[C@H](O)c1cccc(O)c1` [phenylephrine], for which the “expression of 38 kDa calcineurin-independent MCIP1 isoform” value in data set [3] is recorded as “unaffected”. The “expression of 28 kDa MCIP1 protein” value in data set [3] (NRVM stimulated with phenylephrine) is on record as “strongly induced”. Also, in the data set with TRPC3 protein in NRVM, the “expression of TRPC3 channel protein in cardiomyocytes” value was “significantly increased”.
Regarding `NCCOB(c1ccccc1)c1ccccc1` [Compound 2-APB, 2-amino-ethoxydiphenyl borane], in [4], the “inhibition of calcium-activated chloride channels” value was “not inhibited”. Moreover, in data set [5], the “inhibition of arachidonic acid-activated calcium channels” value was “not inhibited”. Besides, in [6], the “inhibition of purinergic P2X receptor calcium channels” value is recorded as “not inhibited”. Moreover, the “inhibition of ryanodine receptors” value with ryanodine receptors is given as “not inhibited”. The “inhibition of voltage-gated calcium channels” value in data set [7] is on record as “not inhibited”. The “inhibition of S-nitrosylation-activated calcium channels” value in data set [8] is recorded as “not inhibited”. Moreover, the “expression of 38 kDa calcineurin-independent MCIP1 isoform” value in data set [3] is on record as “unaffected”. Also, in data set [3] (PE-stimulated NRVM, increasing concentrations), the “PE-dependent induction of 28 kDa MCIP1 protein” value is recorded as “attenuates; also recorded: attenuated induction”. In [9] (48 hours, 0.3 to 30 μM), the “cytotoxicity as measured by adenylate kinase release” value is on record as “no significant cytotoxicity; also recorded: no significant toxicity was observed at any concentration”.
For Triton X-100, the “fold change in AK release versus unstimulated control” value in [9] (0.1% Triton X-100, positive control for cytotoxicity) is on record as “approximately 6 fold”.
